Data published in ChEMBL document CHEMBL1131401, “Potent and selective bicyclic lactam inhibitors of thrombin: Part 2: P1 modifications” (Bioorg Med Chem Lett, 1998).
pIC50: −log10 of the molar value.

What was measured:
[1] = molecular target: T1, Serine protease 1 (Homo sapiens, UniProt P07477); assay: In vitro inhibitory activity against trypsin
[2] = molecular target: Prothrombin (Homo sapiens, UniProt P00734); assay: In vitro inhibitory activity against thrombin(FIIa)
[3] = system: Rattus norvegicus; assay: In vivo mean occlusion time for the antithrombic activity in rat arterial thrombosis model; type: functional
[4] = molecular target: T1, Serine protease 1; assay: In vitro inhibitory activity against trypsin at concentration 100 uM

T1 sequence (P07477 whole entry): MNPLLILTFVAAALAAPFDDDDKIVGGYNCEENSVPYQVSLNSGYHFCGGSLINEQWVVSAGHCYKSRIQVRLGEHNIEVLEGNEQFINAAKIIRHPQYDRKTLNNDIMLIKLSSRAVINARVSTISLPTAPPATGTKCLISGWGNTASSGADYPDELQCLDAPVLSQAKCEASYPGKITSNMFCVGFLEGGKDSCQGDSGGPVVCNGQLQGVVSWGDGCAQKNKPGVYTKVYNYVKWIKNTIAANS

| Compound | pIC50 [1] | pIC50 [2] | MOT [3] [min] | inhibition [4] [%] |
| --- | --- | --- | --- | --- |
| N=C(N)N1CCCC(C[C@@H](NC(=O)[C@@H]2CC[C@H]3CN(C(=O)CCc4ccccc4)CC(=O)N32)C(=O)c2nccs2)C1 (some centres undefined) | 4.50 | 6.86 | 27 | – |
| N=C(N)N1CCCC(C[C@H](NC(=O)[C@@H]2CC[C@H]3CN(C(=O)CCc4ccccc4)CC(=O)N32)C(=O)c2nccs2)C1 (some centres undefined) | 5.36 | 7.52 | >60 | – |
| N[C@H]1CC[C@H]([C@H](NC(=O)[C@@H]2CC[C@H]3CN(C(=O)CCc4ccccc4)CC(=O)N32)C(=O)c2nccs2)CC1 | 5.05 | 7.48 | 48 | – |
| N=C(N)N1CCC([C@H](NC(=O)[C@@H]2CC[C@H]3CN(C(=O)CCc4ccccc4)CC(=O)N32)C(=O)c2nccs2)CC1 | 4.92 | 9.00 | 57 | – |
| N=C(N)N1CCC([C@@H](NC(=O)[C@@H]2CC[C@H]3CN(C(=O)CCc4ccccc4)CC(=O)N32)C(=O)c2nccs2)CC1 | – | 6.82 | – | 31 |
| N=C(N)c1cccc(C[C@H](NC(=O)[C@@H]2CC[C@H]3CN(C(=O)CCc4ccccc4)CC(=O)N32)C(=O)c2nccs2)c1 | 5.11 | 7.11 | 18 | – |
| N=C(N)NCCC[C@H](NC(=O)[C@@H]1CC[C@H]2CN(C(=O)CCc3ccccc3)CC(=O)N21)C(=O)c1nccs1 | > 9.00 | – | 42 | – |
